According to US20260250322A1, “NEW PEPTIDES AS SELECTIVE IL-23 RECEPTOR INHIBITORS” (SANOFI, priority 2023, published 2026):
Numbered stars: 1 amine (or outer) side, 2 acyl side, 3 side chain; on linkers, the order of the positions; unused ones are H or OH. Bridge positions count the residues as written; N and C are the ends. Square brackets hold non-standard residues; d marks the D form. Peptide text beside a SMILES is read from it. Phe(4-OMe) = Yme, 4-methoxy-L-phenylalanine (O-methyl-tyrosine), COc1ccc(C[C@H](N[*:1])C(=O)[*:2])cc1; Tyr(Me) = Yme = 4-methoxy-L-phenylalanine (O-methyl-tyrosine), COc1ccc(C[C@H](N[*:1])C(=O)[*:2])cc1; 1Nal = N[C@@H](Cc1cccc2ccccc12)C(=O)O; 2Nal = N[C@@H](Cc1ccc2ccccc2c1)C(=O)O; Agb = N=C(N)NCC[C@H](N)C(=O)O; dOrn = NCCC[C@@H](N)C(=O)O; Orn = NCCC[C@H](N)C(=O)O; Aib = CC(C)(N)C(=O)O

T1: human IL-23R (Homo sapiens, UniProt Q5VWK5)
T1 sequence (Q5VWK5 24-355 limits assumed): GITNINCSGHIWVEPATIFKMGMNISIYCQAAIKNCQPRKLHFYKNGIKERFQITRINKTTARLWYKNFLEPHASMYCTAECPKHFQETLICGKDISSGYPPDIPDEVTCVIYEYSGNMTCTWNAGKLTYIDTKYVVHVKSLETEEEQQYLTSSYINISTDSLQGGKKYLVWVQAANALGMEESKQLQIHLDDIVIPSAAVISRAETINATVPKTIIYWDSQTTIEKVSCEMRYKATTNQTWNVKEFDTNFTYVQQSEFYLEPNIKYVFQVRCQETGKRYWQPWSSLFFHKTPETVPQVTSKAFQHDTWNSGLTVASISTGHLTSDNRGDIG

T2: recombinant human IL-23R-Fc chimera (human, UniProt Q5VWK5 24-353, limits assumed)
T2 construct: Recombinant reagent; also called interleukin-23 receptor; not shown: detected with goat anti-hu-IgG1-HRP antibody
T2 sequence (looked up): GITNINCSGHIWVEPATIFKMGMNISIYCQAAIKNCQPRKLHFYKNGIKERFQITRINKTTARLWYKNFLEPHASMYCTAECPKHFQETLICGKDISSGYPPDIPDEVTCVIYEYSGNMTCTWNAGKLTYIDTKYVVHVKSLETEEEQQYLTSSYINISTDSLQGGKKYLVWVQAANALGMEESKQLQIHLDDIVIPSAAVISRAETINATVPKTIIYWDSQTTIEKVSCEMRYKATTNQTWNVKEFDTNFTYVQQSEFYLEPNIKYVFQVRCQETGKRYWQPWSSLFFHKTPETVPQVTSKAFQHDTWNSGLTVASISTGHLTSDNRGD


What was measured:
[1] = target: T1, human IL-23R; experiment: Human ELISA IL-23/IL-23R binding inhibition; details: human IL-23 coated, recombinant human IL-23R-Fc chimera
Procedure: (§1) Antagonism of peptide compounds for human interleukin-23 receptor inhibitors, was determined by an ELISA assay.
(§2) A 384-well plate was coated with 50 μl/well of human IL-23 at a final concentration of 1 μg/ml and incubated overnight at 4° C. The wells were washed 3 times with 80 μl wash buffer and blocked with 80 μl blocking buffer for 60 minutes at room temperature and washed again. 20 μl of serially diluted test peptides was added to each well and subsequently 20 μl of recombinant human IL-23R-Fc chimera at final concentration of 0.1 μg/ml. The plate was incubated for 60 minutes at room temperature. After the wells were washed, bound IL-23R-Fc was detected with goat anti-hu-lgG1-HRP antibody. Signals were visualized with QuantaBlu Fluorogenic Peroxidase Substrate.

[2] = Chemical stability (relative purity loss) of peptide compounds in buffer formulations; format: physicochemical
Procedure: Purity of a compound batch was determined through UHPLC/MS prior to chemical stability measurement using Method A.
For stability assessment, the target concentration was 300 μM pure compound. Therefore, solutions from solid samples were prepared in the following buffer systems with a concentration of ~300 µM compound based on the previously determined % purity. The solid samples were obtained by drying down aliquots of a freshly prepared acetonitrile stock solution using a THERMO SPEEDVAC vacuum centrifuge. The dry down time was 3 hours.
The following buffer systems were applied: • Solubility buffer system A) 100 mM phosphate buffer pH 7.4. • Solubility buffer system B) 100 mM phosphate buffer pH 6.5. • Solubility buffer system C) 100 mM HCl pH 1.2.
Prepared solutions were filtered through […] pore size and filled into sterilized glass containers under laminar flow conditions.
[…] After this time course, the samples were centrifuged for 15 min at 2500 RCF. Then 1.5 μl of the undiluted supernatant were analysed with UHPLC-UV.
The chemical stability was rated through the relative loss of purity calculated by the equation:
[(purity after 0 hours at 37° C.)(purity after 24 hours at 37° C.)]/(purity after 0 hours at 37° C.)]*100%.
The purity is calculated as [(peak area peptide)/(total peak area)]*100%.
Buffer composition: 100 mM HCl pH 1.2, 100 mM phosphate buffer pH 6.5, 100 mM phosphate buffer pH 7.4

[3] = tested on: IL-23 induced STAT3 signaling; experiment: Inhibition of IL-23 induced STAT3 signaling in HEK-Blue IL-23 cells (SEAP reporter); format: cell-based; details: human IL-23 0.25 ng/ml, read-out: Inhibition of IL-23 induced pSTAT3 (IC50 nM)
How it was run: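 HEK-Blue IL-23 cells (10,000/well) preincubated 60 min at 37 °C with serially diluted compound, then stimulated overnight with human IL-23 (0.25 ng/ml final). STAT3-driven SEAP in supernatant read with QUANTI-Blue after 45 min at room temperature, OD 620-655 nm; dose-response fitted.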

[4] = target: T2, recombinant human IL-23R-Fc chimera; experiment: competition ELISA: coated human IL-23, IL-23R-Fc 0.1 ug/ml, peptide titrated
Procedure: as §1, §2

[5] = pH 6.5 (100 mM phosphate buffer)
[6] = pH 7.4 (100 mM phosphate buffer)

IC50 [1] [nM]	Conc. [mg/ml] 0 h ([2]; pH 1.2 (100 mM HCl)) [mg/mL]	Conc. [mg/ml] 24 h 37° C. ([2]; pH 1.2 (100 mM HCl)) [mg/mL]	Mass Balance [%] 24 h 37° C. ([2]; pH 1.2 (100 mM HCl)) [%]	Relative Purity Loss [%] 24 h 37° C. ([2]; pH 1.2 (100 mM HCl)) [%]	Conc. [mg/ml] 0 h [2, 5] [mg/mL]	Conc. [mg/ml] 24 h 37° C. [2, 5] [mg/mL]	Mass Balance [%] 24 h 37° C. [2, 5] [%]	Relative Purity Loss [%] 24 h 37° C. [2, 5] [%]	Conc. [mg/ml] 0 h [2, 6] [mg/mL]	Conc. [mg/ml] 24 h 37° C. [2, 6] [mg/mL]	Mass Balance [%] 24 h 37° C. [2, 6] [%]	Relative Purity Loss [%] 24 h 37° C. [2, 6] [%]	IC50 [3] [nM]	IC50 [4] [nM]	Molecule
2.74	0.2	0.2	−2.5	26.2	0.2	0.2	4.1	−1.4	0.2	0.2	4.6	2.0	943		COc1ccc(C[C@@H]2NC(=O)[C@H](C)NC(=O)[C@H](CCC(N)=O)NC(=O)[C@H](Cc3c[nH]c4ccccc34)NC(=O)[C@H]([C@@H](C)O)NC(=O)[C@H](CC(N)=O)NC(=O)[C@H](NC(C)=O)CCCCNC(=O)C[C@@H](C(=O)N[C@@H](CC(N)=O)C(=O)N[C@@H](CC(N)=O)C(N)=O)NC(=O)C(C)(C)NC(=O)[C@H](Cc3cccc4ccccc34)NC2=O)cc1 [compound 8] (Ac-[dK]NTWQAY(Me)[1Nal][Aib]DNN-NH2; lactam 1-10)
1.55	1.5	1.1	−3.4	23.2	1.2	1.1	−3.6	1.1	1.4	1.3	−3.1	3.6	430		COc1ccc(C[C@@H]2NC(=O)[C@H](CCCNC(=N)N)NC(=O)[C@H](CCC(N)=O)NC(=O)[C@H](Cc3c[nH]c4ccccc34)NC(=O)[C@H]([C@@H](C)O)NC(=O)[C@H](CC(N)=O)NC(=O)[C@H](NC(C)=O)CCCCNC(=O)C[C@@H](C(=O)N[C@@H](CC(N)=O)C(=O)N[C@@H](CC(N)=O)C(N)=O)NC(=O)C(C)(C)NC(=O)[C@H](Cc3ccc4ccccc4c3)NC2=O)cc1 [compound 3] (Ac-[dK]NTWQRY(Me)[2Nal][Aib]DNN-NH2; lactam 1-10)
2.47	1.1	0.7	−9.6	26.5	1.5	1.5	−3.9	0.3	1.1	1.0	−2.3	4.7	850		COc1ccc(C[C@@H]2NC(=O)[C@H](CC(C)C)NC(=O)[C@H](CCC(N)=O)NC(=O)[C@H](Cc3c[nH]c4ccccc34)NC(=O)[C@H]([C@@H](C)O)NC(=O)[C@H](CC(N)=O)NC(=O)[C@H](NC(C)=O)CCCCNC(=O)C[C@@H](C(=O)N[C@@H](CC(N)=O)C(=O)N[C@@H](CC(N)=O)C(N)=O)NC(=O)C(C)(C)NC(=O)[C@H](Cc3cccc4ccccc34)NC2=O)cc1 [compound 7] (Ac-[dK]NTWQLY(Me)[1Nal][Aib]DNN-NH2; lactam 1-10)
1.96	1.6	1.1	−3.8	27.3	1.4	1.3	−1.4	0.6	1.4	1.3	−4.8	1.4	366		COc1ccc(C[C@@H]2NC(=O)[C@H](CCCNC(=N)N)NC(=O)[C@H](CCC(N)=O)NC(=O)[C@H](Cc3c[nH]c4ccccc34)NC(=O)[C@H]([C@@H](C)O)NC(=O)[C@H](CC(N)=O)NC(=O)[C@@H](NC(C)=O)CC(=O)NCCC[C@@H](C(=O)N[C@@H](CC(N)=O)C(=O)N[C@@H](CC(N)=O)C(N)=O)NC(=O)C(C)(C)NC(=O)[C@H](Cc3ccc4ccccc4c3)NC2=O)cc1 [compound 6] (Ac-DNTWQRY(Me)[2Nal][Aib][Orn]NN-NH2; lactam 1-10)
0.63													334		COc1ccc(C[C@@H]2NC(=O)[C@H](CC(C)C)NC(=O)[C@H](CCC(N)=O)NC(=O)[C@H](Cc3c[nH]c4ccccc34)NC(=O)[C@H]([C@@H](C)O)NC(=O)[C@H](CC(N)=O)NC(=O)[C@H](NC(C)=O)CCCCNC(=O)C[C@@H](C(=O)N[C@@H](CC(N)=O)C(=O)N[C@@H](CC(N)=O)C(N)=O)NC(=O)C(C)(C)NC(=O)[C@H](Cc3ccc4ccccc4c3)NC2=O)cc1 [compound 1] (Ac-[dK]NTWQLY(Me)[2Nal][Aib]DNN-NH2; lactam 1-10)
														1.46	Ac-[dK]NTWQ[Agb][Phe(4-OMe)][2Nal][Aib]DNN-NH2 (lactam 1-10; SMILES COc1ccc(C[C@@H]2NC(=O)[C@H](CCNC(=N)N)NC(=O)[C@H](CCC(N)=O)NC(=O)[C@H](Cc3c[nH]c4ccccc34)NC(=O)[C@H]([C@@H](C)O)NC(=O)[C@H](CC(N)=O)NC(=O)[C@H](NC(C)=O)CCCCNC(=O)C[C@@H](C(=O)N[C@@H](CC(N)=O)C(=O)N[C@@H](CC(N)=O)C(N)=O)NC(=O)C(C)(C)NC(=O)[C@H](Cc3ccc4ccccc4c3)NC2=O)cc1) [peptide compound SEQ ID NO: 39]
														19.7	Ac-[dOrn]NTWQR[Tyr(Me)][2Nal][Aib]DNN-NH2 (lactam 1-10; SMILES COc1ccc(C[C@@H]2NC(=O)[C@H](CCCNC(=N)N)NC(=O)[C@H](CCC(N)=O)NC(=O)[C@H](Cc3c[nH]c4ccccc34)NC(=O)[C@H]([C@@H](C)O)NC(=O)[C@H](CC(N)=O)NC(=O)[C@H](NC(C)=O)CCCNC(=O)C[C@@H](C(=O)N[C@@H](CC(N)=O)C(=O)N[C@@H](CC(N)=O)C(N)=O)NC(=O)C(C)(C)NC(=O)[C@H](Cc3ccc4ccccc4c3)NC2=O)cc1) [peptide compound SEQ ID NO: 27]
